#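 Results reflect a 48-hour exposure of cells in 96-well plates to compound at five concentrations. Abbreviation: GI50, concentration required for 50% inhibition of growth. TGI: concentration producing complete growth inhibition.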
# What was measured:
# Assay in all cases: NCI-60 cell line screen, 48 h
# 786-0 renal = tested on: 786-0 renal
# A498 renal = tested on: A498 renal
# A549 NSCLC = tested on: A549 NSCLC
# ACHN renal = tested on: ACHN renal
# BT-549 breast = tested on: BT-549 breast
# CAKI-1 renal = tested on: CAKI-1 renal
# CCRF-CEM leukemia = tested on: CCRF-CEM leukemia
# COLO 205 colon = tested on: COLO 205 colon
# DU-145 prostate = tested on: DU-145 prostate
# EKVX NSCLC = tested on: EKVX NSCLC
# HCC-2998 colon = tested on: HCC-2998 colon
# HCT-116 colon = tested on: HCT-116 colon
# HCT-15 colon = tested on: HCT-15 colon
# HL-60(TB) leukemia = tested on: HL-60(TB) leukemia
# HOP-62 NSCLC = tested on: HOP-62 NSCLC
# HOP-92 NSCLC = tested on: HOP-92 NSCLC
# HS 578T breast = tested on: HS 578T breast
# HT29 colon = tested on: HT29 colon
# IGROV1 ovarian = tested on: IGROV1 ovarian
# K-562 leukemia = tested on: K-562 leukemia
# KM12 colon = tested on: KM12 colon
# LOX IMVI melanoma = tested on: LOX IMVI melanoma
# M14 melanoma = tested on: M14 melanoma
# MALME-3M melanoma = tested on: MALME-3M melanoma
# MCF7 breast = tested on: MCF7 breast
# MDA-MB-231 breast = tested on: MDA-MB-231 breast
# MDA-MB-435 = tested on: MDA-MB-435
# MDA-MB-468 breast = tested on: MDA-MB-468 breast
# MOLT-4 leukemia = tested on: MOLT-4 leukemia
# NCI-H226 lung = tested on: NCI-H226 lung
# NCI-H23 lung = tested on: NCI-H23 lung
# NCI-H460 lung = tested on: NCI-H460 lung
# NCI-H522 lung = tested on: NCI-H522 lung
# OVCAR-3 ovarian = tested on: OVCAR-3 ovarian
# OVCAR-4 ovarian = tested on: OVCAR-4 ovarian
# OVCAR-5 ovarian = tested on: OVCAR-5 ovarian
# OVCAR-8 ovarian = tested on: OVCAR-8 ovarian
# PC-3 prostate = tested on: PC-3 prostate
# RPMI-8226 leukemia = tested on: RPMI-8226 leukemia
# RXF 393 renal = tested on: RXF 393 renal
# SF-268 CNS = tested on: SF-268 CNS
# SF-295 CNS = tested on: SF-295 CNS
# SF-539 CNS = tested on: SF-539 CNS
# SK-MEL-28 melanoma = tested on: SK-MEL-28 melanoma
# SK-MEL-5 melanoma = tested on: SK-MEL-5 melanoma
# SK-OV-3 ovarian = tested on: SK-OV-3 ovarian
# SN12C renal = tested on: SN12C renal
# SNB-19 CNS = tested on: SNB-19 CNS
# SNB-75 CNS = tested on: SNB-75 CNS
# SR leukemia = tested on: SR leukemia
# SW-620 colon = tested on: SW-620 colon
# T-47D breast = tested on: T-47D breast
# TK-10 renal = tested on: TK-10 renal
# U251 CNS = tested on: U251 CNS
# UACC-257 melanoma = tested on: UACC-257 melanoma
# UACC-62 melanoma = tested on: UACC-62 melanoma
# UO-31 renal = tested on: UO-31 renal
smiles,measurement,setting,value
Cc1sc(C(NC(=O)OCCn2c([N+](=O)[O-])cnc2C)C(F)(F)Cl)nc1-c1ccc(OC(F)(F)F)cc1 (centres undefined),GI50,786-0 renal,7.35 µM
same,TGI,786-0 renal,20.7 µM
same,GI50,A498 renal,4.98 µM
same,TGI,A498 renal,20.6 µM
same,GI50,A549 NSCLC,4.57 µM
same,TGI,A549 NSCLC,20.4 µM
same,GI50,ACHN renal,3.04 µM
same,TGI,ACHN renal,11.3 µM
same,GI50,BT-549 breast,5.57 µM
same,TGI,BT-549 breast,18.6 µM
same,GI50,CAKI-1 renal,2.83 µM
same,TGI,CAKI-1 renal,11.8 µM
same,GI50,CCRF-CEM leukemia,2.32 µM
same,TGI,CCRF-CEM leukemia,16.4 µM
same,GI50,COLO 205 colon,5.8 µM
same,TGI,COLO 205 colon,21.3 µM
same,GI50,DU-145 prostate,4.97 µM
same,TGI,DU-145 prostate,17.9 µM
same,GI50,EKVX NSCLC,2.8 µM
same,TGI,EKVX NSCLC,12.6 µM
same,GI50,HCC-2998 colon,4.8 µM
same,TGI,HCC-2998 colon,17 µM
same,GI50,HCT-116 colon,4.78 µM
same,TGI,HCT-116 colon,20.1 µM
same,GI50,HCT-15 colon,3.19 µM
same,TGI,HCT-15 colon,12.1 µM
same,GI50,HL-60(TB) leukemia,4.06 µM
same,TGI,HL-60(TB) leukemia,24.1 µM
same,GI50,HOP-62 NSCLC,8.7 µM
same,TGI,HOP-62 NSCLC,23.9 µM
same,GI50,HOP-92 NSCLC,2.86 µM
same,TGI,HOP-92 NSCLC,11.6 µM
same,GI50,HS 578T breast,2.55 µM
same,TGI,HS 578T breast,33 µM
same,GI50,HT29 colon,3.56 µM
same,TGI,HT29 colon,13 µM
same,GI50,IGROV1 ovarian,6.15 µM
same,TGI,IGROV1 ovarian,19.5 µM
same,GI50,K-562 leukemia,3.62 µM
same,TGI,K-562 leukemia,> 100 µM
same,GI50,KM12 colon,3.63 µM
same,TGI,KM12 colon,14.7 µM
same,GI50,LOX IMVI melanoma,3.42 µM
same,TGI,LOX IMVI melanoma,13.6 µM
same,GI50,M14 melanoma,4.56 µM
same,TGI,M14 melanoma,18.2 µM
same,GI50,MALME-3M melanoma,6.79 µM
same,TGI,MALME-3M melanoma,21.8 µM
same,GI50,MCF7 breast,2.68 µM
same,TGI,MCF7 breast,10.3 µM
same,GI50,MDA-MB-231 breast,3.37 µM
same,TGI,MDA-MB-231 breast,12.3 µM
same,GI50,MDA-MB-435,3.87 µM
same,TGI,MDA-MB-435,15.5 µM
same,GI50,MDA-MB-468 breast,2.37 µM
same,TGI,MDA-MB-468 breast,8.73 µM
same,GI50,MOLT-4 leukemia,3.74 µM
same,TGI,MOLT-4 leukemia,16.5 µM
same,GI50,NCI-H226 lung,3.78 µM
same,TGI,NCI-H226 lung,16.7 µM
same,GI50,NCI-H23 lung,7.46 µM
same,TGI,NCI-H23 lung,22.7 µM
same,GI50,NCI-H460 lung,3.31 µM
same,TGI,NCI-H460 lung,> 100 µM
same,GI50,NCI-H522 lung,3.82 µM
same,TGI,NCI-H522 lung,15.3 µM
same,GI50,OVCAR-3 ovarian,3.68 µM
same,TGI,OVCAR-3 ovarian,13.3 µM
same,GI50,OVCAR-4 ovarian,3.85 µM
same,TGI,OVCAR-4 ovarian,15.7 µM
same,GI50,OVCAR-5 ovarian,4.28 µM
same,TGI,OVCAR-5 ovarian,17.6 µM
same,GI50,OVCAR-8 ovarian,7.09 µM
same,TGI,OVCAR-8 ovarian,22.6 µM
same,GI50,PC-3 prostate,2.65 µM
same,TGI,PC-3 prostate,14.8 µM
same,GI50,RPMI-8226 leukemia,3.41 µM
same,TGI,RPMI-8226 leukemia,54.6 µM
same,GI50,RXF 393 renal,2.65 µM
same,TGI,RXF 393 renal,12.6 µM
same,GI50,SF-268 CNS,3.6 µM
same,TGI,SF-268 CNS,16.3 µM
same,GI50,SF-295 CNS,3.26 µM
same,TGI,SF-295 CNS,13.7 µM
same,GI50,SF-539 CNS,9.15 µM
same,TGI,SF-539 CNS,21.4 µM
same,GI50,SK-MEL-28 melanoma,4.84 µM
same,TGI,SK-MEL-28 melanoma,17.1 µM
same,GI50,SK-MEL-5 melanoma,3.89 µM
same,TGI,SK-MEL-5 melanoma,14.7 µM
same,GI50,SK-OV-3 ovarian,12 µM
same,TGI,SK-OV-3 ovarian,26.2 µM
same,GI50,SN12C renal,4.47 µM
same,TGI,SN12C renal,15.9 µM
same,GI50,SNB-19 CNS,4.93 µM
same,TGI,SNB-19 CNS,17.4 µM
same,GI50,SNB-75 CNS,1.43 µM
same,TGI,SNB-75 CNS,14.2 µM
same,GI50,SR leukemia,3.58 µM
same,TGI,SR leukemia,30.6 µM
same,GI50,SW-620 colon,7.32 µM
same,TGI,SW-620 colon,> 100 µM
same,GI50,T-47D breast,3.11 µM
same,TGI,T-47D breast,12.8 µM
same,GI50,TK-10 renal,3.96 µM
same,TGI,TK-10 renal,15.8 µM
same,GI50,U251 CNS,5.38 µM
same,TGI,U251 CNS,19.2 µM
same,GI50,UACC-257 melanoma,7.75 µM
same,TGI,UACC-257 melanoma,22.5 µM
same,GI50,UACC-62 melanoma,3.53 µM
same,TGI,UACC-62 melanoma,15.4 µM
same,GI50,UO-31 renal,2.77 µM
same,TGI,UO-31 renal,13.5 µM
